Measured values from patent publication US20230203041A1, “ANTAGONISTS OF THE ADENOSINE A2A RECEPTOR” (AdoRx Therapeutics Limited, priority 2020, published 2023).

What was measured:
[1] = biological target: T1, human Adenosine A3 receptor (Homo sapiens, UniProt P0DMS8); assay: Adenosine receptor TR-FRET binding assay (CA200645 displacement), A3
T1 sequence (P0DMS8 1-318): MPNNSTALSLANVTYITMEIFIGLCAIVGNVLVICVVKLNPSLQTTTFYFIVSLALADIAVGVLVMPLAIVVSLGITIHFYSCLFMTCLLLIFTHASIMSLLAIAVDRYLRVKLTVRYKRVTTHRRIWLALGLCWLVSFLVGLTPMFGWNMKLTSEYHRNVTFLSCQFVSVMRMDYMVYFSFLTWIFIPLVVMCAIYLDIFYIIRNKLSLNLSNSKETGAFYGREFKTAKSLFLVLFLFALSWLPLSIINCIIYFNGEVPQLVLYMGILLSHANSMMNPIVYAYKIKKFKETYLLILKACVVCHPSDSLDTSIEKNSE

[2] = biological target: T2, human Adenosine A2a receptor (Homo sapiens, UniProt P29274); assay: Adenosine receptor TR-FRET binding assay (CA200645 displacement), A2a; settings: 100 nM CA200645, CHO cell membranes, 2 hours at room temperature
T2 construct: expressed in transfected cells; host or cells: CHO cell membranes

[3] = biological target: T3, human Adenosine A2b receptor (Homo sapiens, UniProt P29275); assay: Adenosine receptor TR-FRET binding assay (CA200645 displacement), A2b; settings: 30 nM CA200645, CHO cell membranes, 2 hours at room temperature
T3 construct: expressed in transfected cells; host or cells: CHO cell membranes
T3 sequence (P29275 1-332): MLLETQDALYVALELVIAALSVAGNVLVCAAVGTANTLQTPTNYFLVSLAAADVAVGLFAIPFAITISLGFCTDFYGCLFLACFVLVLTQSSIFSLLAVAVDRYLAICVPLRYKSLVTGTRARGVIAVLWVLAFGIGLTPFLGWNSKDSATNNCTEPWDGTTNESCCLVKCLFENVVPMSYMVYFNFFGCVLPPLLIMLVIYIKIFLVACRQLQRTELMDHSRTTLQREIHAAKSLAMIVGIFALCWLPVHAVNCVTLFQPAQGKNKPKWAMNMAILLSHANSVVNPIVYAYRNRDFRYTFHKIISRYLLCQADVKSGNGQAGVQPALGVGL

human PBMCs = assay: CD3/CD28 stimulated IL-2 release NECA reversal assay in human PBMCs; format: cell-based; settings: PBMC, CD3/CD28 antibody stimulated, 1 uM NECA, 24 hours, IL-2 in culture supernatant;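 also: dose-response as % inhibition where 100% equals no-NECA control wells with CD3/CD28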
Summary of the method: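 PBMCs from citrated donor blood, 50,000 cells/well on plate-bound CD3 antibody (1 ug/ml), with 1 ug/ml CD28 antibody, 1 uM NECA and antagonist at 0.003-10 μM final. After 24 h at 37° C, supernatant IL-2 was measured by MSD immunoassay.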

[4] = tested on: CD8+ T cells in human whole blood; assay: Measurement of pCREB in CD8+ T cells in human whole blood; format: cell-based; settings: T-cell, 1 h; heparinised human whole blood, rolipram, 3 μM NECA, 60 min, phospho-CREB in CD8+ T cells by FACS
Procedure: Heparinised human whole blood was pre-incubated at 37° C. with serial dilutions of A2a antagonists for 20 min. and the phosphodiesterase inhibitor rolipram to amplify the pCREB response. The adenosine receptor agonist NECA is then added at a final concentration of 3 μM and following a 60 min incubation the blood is fixed and red blood cells lysed. White blood cells are isolated, permeabilized and stained with directly conjugated fluorescent antibodies to phospho-CREB (Alexa Fluor 488) and CD8 (Alexa Fluor 647) and the level of phospho-CREB in CD8+ T cells is measured by FACS using a BD Accuri C6 Flow Cytometer.

[5] = biological target: T4, human Adenosine A1 receptor (Homo sapiens, UniProt P30542); assay: Adenosine receptor TR-FRET binding assay (CA200645 displacement), A1
T4 sequence (P30542 1-326): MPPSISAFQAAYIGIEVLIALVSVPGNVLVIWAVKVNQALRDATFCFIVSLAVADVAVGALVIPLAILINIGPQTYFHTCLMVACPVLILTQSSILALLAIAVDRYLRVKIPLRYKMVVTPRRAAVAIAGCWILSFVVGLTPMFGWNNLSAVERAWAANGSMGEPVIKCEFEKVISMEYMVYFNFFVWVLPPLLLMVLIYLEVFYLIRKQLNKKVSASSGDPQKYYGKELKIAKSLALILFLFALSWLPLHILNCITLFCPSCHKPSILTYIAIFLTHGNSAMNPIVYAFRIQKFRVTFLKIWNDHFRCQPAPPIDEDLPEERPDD

T2 sequence (P29274 whole entry): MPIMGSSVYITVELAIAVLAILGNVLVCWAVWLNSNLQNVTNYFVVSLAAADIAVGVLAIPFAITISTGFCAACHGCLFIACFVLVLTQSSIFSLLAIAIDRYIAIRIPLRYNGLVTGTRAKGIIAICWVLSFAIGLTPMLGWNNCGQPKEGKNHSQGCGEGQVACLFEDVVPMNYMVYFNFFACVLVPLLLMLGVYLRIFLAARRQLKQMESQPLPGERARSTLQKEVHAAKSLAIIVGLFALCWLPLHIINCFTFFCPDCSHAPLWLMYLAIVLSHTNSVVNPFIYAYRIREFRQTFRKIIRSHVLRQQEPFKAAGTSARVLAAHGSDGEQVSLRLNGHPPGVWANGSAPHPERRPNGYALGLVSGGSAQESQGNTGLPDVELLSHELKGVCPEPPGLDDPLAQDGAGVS

Row | Structure (SMILES) | Ki [1] [nM] | Ki [2] [nM] | Ki [3] [nM] | IC50 (human PBMCs) [nM] | IC50 [4] [nM] | Ki [5] [nM]
1 | Cc1cc(-c2c(-c3cccc(C#N)c3)nn3ccc(C(=O)N[C@H](C)C(C)(C)O)nc23)cc(Cl)n1 [Example 6.4, 3-(2-Chloro-6-methyl-4-pyridyl)-2-(3-cyanophenyl)-N-[(1 R)-2-hydroxy-1,2-dimethyl-propyl]pyrazolo[1,5-a]pyrimidine-5-carboxamide] | 1820 | 0.6 | 30 | 6 | 430 | 402
2 | Cc1cc(-c2c(-c3cccc(C#N)c3)nn3ccc(C(=O)NCC(C)(O)CO)nc23)cc(Cl)n1 (stereo not drawn) [Example 6.9, 3-(2-Chloro-6-methyl-4-pyridyl)-2-(3-cyanophenyl)-N-(2,3-dihydroxy-2-methyl-propyl)pyrazolo[1,5-a]pyrimidine-5-carboxamide] | > 1000 | 0.9 | 2 | 10 | 160 | 232
3 | Cc1cc(-c2c(-c3cccc(C#N)c3)nn3ccc(C(=O)NC[C@H](O)CO)nc23)cc(Cl)n1 [Example 6.13, 3-(2-Chloro-6-methyl-4-pyridyl)-2-(3-cyanophenyl)-N-[(2S)-2,3-dihydroxypropyl]pyrazolo[1,5-a]pyrimidine-5-carboxamide] | > 1000 | 1.7 | 17 | 32 | 390 | 424
4 | CO[C@H]1CN(C)C[C@@H]1NC(=O)c1ccn2nc(-c3cccc(C#N)c3)c(-c3cc(C)nc(Cl)c3)c2n1 [Example 6.14, 3-(2-Chloro-6-methyl-4-pyridyl)-2-(3-cyanophenyl)-N-[(3S,4S)-4-methoxy-1-methyl-pyrrolidin-3-yl]pyrazolo[1,5-a]pyrimidine-5-carboxamide] | > 1000 | 1.1 | 60 | 18 | 370 | 231
5 | Cc1cc(-c2c(-c3cccc(C#N)c3)nn3ccc(C(=O)NC[C@@H](O)CO)nc23)cc(Cl)n1 [Example 6.15, 3-(2-Chloro-6-methyl-4-pyridyl)-2-(3-cyanophenyl)-N-[(2R)-2,3-dihydroxypropyl]pyrazolo[1,5-a]pyrimidine-5-carboxamide] | > 1000 | 0.7 | 3 | 14 | 240 | 115
6 | Cc1cc(-c2c(-c3cccc(C#N)c3)nn3ccc(C(=O)N(C)CC(C)(C)O)nc23)cc(Cl)n1 [Example 6.18, 3-(2-Chloro-6-methyl-4-pyridyl)-2-(3-cyanophenyl)-N-(2-hydroxy-2-methyl-propyl)-N-methyl-pyrazolo[1,5-a]pyrimidine-5-carboxamide] | > 1000 | 4.2 | 13 | 93 | 1690 | 125
7 | Cc1cc(-c2c(-c3cccc(C#N)c3)nn3ccc(C(=O)N[C@H]4C[C@H](O)C4)nc23)cc(Cl)n1 [Example 6.19, 3-(2-Chloro-6-methyl-4-pyridyl)-2-(3-cyanophenyl)-N-(trans-3-hydroxycyclobutyl)pyrazolo[1,5-a]pyrimidine-5-carboxamide] | > 1000 | 0.3 | 22 | 26 | 470 | 456
8 | Cc1cc(-c2c(-c3cccc(C#N)c3)nn3ccc(C(=O)N[C@H]4C[C@@H](O)C4)nc23)cc(Cl)n1 [Example 6.20, 3-(2-Chloro-6-methyl-4-pyridyl)-2-(3-cyanophenyl)-N-(cis-3-hydroxycyclobutyl)pyrazolo[1,5-a]pyrimidine-5-carboxamide] | > 1000 | 0.7 | 19 | 36.3 | 560 | 204
9 | Cc1cc(-c2c(-c3cccc(C#N)c3)nn3ccc(C(=O)NC(C)(C)C#N)nc23)cc(Cl)n1 [Example 6.21, 3-(2-Chloro-6-methyl-4-pyridyl)-N-(1-cyano-1-methyl-ethyl)-2-(3-cyanophenyl)pyrazolo[1,5-a]pyrimidine-5-carboxamide] | > 1000 | 0.1 | 17 | 1.3 | 430 | 252
10 | Cc1cc(-c2c(-c3cccc(C#N)c3)nn3ccc(C(=O)NC(C)(C)CO)nc23)cc(Cl)n1 [Example 6.22, 3-(2-Chloro-6-methyl-4-pyridyl)-2-(3-cyanophenyl)-N-(2-hydroxy-1,1-dimethyl-ethyl)pyrazolo[1,5-a]pyrimidine-5-carboxamide] | 1910 | 0.1 | 5 | 2.5 | 100 | 61
11 | Cc1cc(-c2c(-c3cccc(C#N)c3)nn3ccc(C(=O)NC(C)(C)C(C)(C)O)nc23)cc(Cl)n1 [Example 6.23, 3-(2-Chloro-6-methyl-4-pyridyl)-2-(3-cyanophenyl)-N-(2-hydroxy-1,1,2-trimethyl-propyl)pyrazolo[1,5-a]pyrimidine-5-carboxamide] | > 1000 | 0.4 | 74 | 5.7 | 330 | 223
12 | Cc1cc(-c2c(-c3cccc(C#N)c3)nn3ccc(C(=O)NCCC(C)(C)N)nc23)cc(Cl)n1 [Example 7, N-(3-Amino-3-methyl-butyl)-3-(2-chloro-6-methyl-4-pyridyl)-2-(3-cyanophenyl)pyrazolo[1,5-a]pyrimidine-5-carboxamide] | > 1000 | 0.4 | 5 | 34 | 280 | 143
13 | Cc1cc(-c2c(-c3cccc(C#N)c3)nn3ccc(C(=O)N[C@H]4CNC[C@H]4O)nc23)cc(Cl)n1 [Example 7.2, 3-(2-Chloro-6-methyl-4-pyridyl)-2-(3-cyanophenyl)-N-[cis-(3S,4R)-4-hydroxypyrrolidin-3-yl]pyrazolo[1,5-a]pyrimidine-5-carboxamide] | > 1000 | 2.6 | 3 | 70 | 1070 | 458
14 | Cc1cc(-c2c(-c3cccc(C#N)c3)nn3ccc(C(=O)NC(C)(C)CN)nc23)cc(Cl)n1 [Example 7.3, N-(2-Amino-1,1-dimethyl-ethyl)-3-(2-chloro-6-methyl-4-pyridyl)-2-(3-cyanophenyl)pyrazolo[1,5-a]pyrimidine-5-carboxamide] | > 1000 | 2.9 | 15 | 172 | 1800 | 44
15 | Cc1cc(-c2c(-c3cccc(C#N)c3)nn3ccc(C(=O)N[C@H](C)[C@H](O)CO)nc23)cc(Cl)n1 [Example 7.9, 3-(2-Chloro-6-methyl-4-pyridyl)-2-(3-cyanophenyl)-N-[(1 R,2S)-2,3-dihydroxy-1-methyl-propyl]pyrazolo[1,5-a]pyrimidine-5-carboxamide] | > 1000 | 0.6 | 2 | 4 | 70 | 160
16 | Cc1cc(-c2c(-c3cccc(C#N)c3)nn3ccc(C(=O)N[C@H]4CC[C@H](N)C4)nc23)cc(Cl)n1 [Example 7.14, 3-(2-Chloro-6-methyl-4-pyridyl)-2-(3-cyanophenyl)-N-[(1S,3S)-3-aminocyclopentyl]pyrazolo[1,5-a]pyrimidine-5-carboxamide] | > 1000 | 2.8 | 32 | 142 | 1930 | 249
